According to publication PMC10458698, “Characterization of the interferences of systemic azole antifungal drugs with adrenal steroid biosynthesis using H295R cells and enzyme activity assays” (Current Research in Toxicology, 2023):

Legend:
CYP17A1 17α-hydroxylase = target: T1, CYP17A1 17α-hydroxylase (Homo sapiens, UniProt P05093); test: CYP17A1 17α-hydroxylase activity assay, microsomes of transfected COS-1 cells; format: biochemical; settings: cell-free; for inhibition of CYP17A1 17α-hydroxylase: in words; for IC50: progesterone 500 nM, 10 min, read-out: IC50 CYP17A1 17α-hydroxylase mean
T1 construct: expressed in transfected cells; host or cells: COS-1 cells, transient transfection, microsomal fraction
T1 sequence (P05093 1-508): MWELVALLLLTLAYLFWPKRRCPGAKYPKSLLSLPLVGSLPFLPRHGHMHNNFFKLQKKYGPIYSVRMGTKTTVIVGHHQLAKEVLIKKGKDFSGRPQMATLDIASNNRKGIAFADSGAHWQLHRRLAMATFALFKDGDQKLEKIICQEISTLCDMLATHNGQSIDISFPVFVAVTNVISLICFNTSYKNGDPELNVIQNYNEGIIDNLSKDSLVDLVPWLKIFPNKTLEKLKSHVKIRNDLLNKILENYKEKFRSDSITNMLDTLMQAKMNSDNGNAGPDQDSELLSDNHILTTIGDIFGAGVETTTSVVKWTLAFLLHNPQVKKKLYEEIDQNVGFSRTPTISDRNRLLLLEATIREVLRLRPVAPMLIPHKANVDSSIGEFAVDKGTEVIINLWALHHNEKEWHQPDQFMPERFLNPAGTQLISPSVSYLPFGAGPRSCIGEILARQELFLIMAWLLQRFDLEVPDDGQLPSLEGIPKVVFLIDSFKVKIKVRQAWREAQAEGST
Procedure: Microsomes were prepared from COS-1 cells transiently transfected with plasmids for either CYP17A1 and POR for CYP17A1-hydroxylase assay (human CYP17A1 was available in our own plasmid collection after cloning into pcDNA3, POR was ordered from Genescript, Piscataway, USA, clone ID OHu25584C), CYP17A1, POR and cytochrome b5 for CYP17A1 17,20-lyase assay (cytochrome b5 was from Genescript, clone ID OHu09495D), POR and CYP21A2 (Genescript, CYP21A2 clone ID OHu18602D), or 3β-HSD2 (Genescript, clone ID OHu14034D). Transfection was performed using PEI and equal amounts of required plasmids with a total DNA amount of 8 µg per transfection of 3,000,000 cells. After overnight incubation, cells were washed with prewarmed PBS before adding ice-cold PBS. Cells were collected and centrifuged at 600 × g for 4 min at 4 °C, washed with ice cold PBS and centrifuged again. The pellet was resuspended in a resuspension buffer (20 mM Tris, pH 7.5, 50 mM KCl, 2 mM MgCl2, 0.25 M sucrose). Cells were disrupted with 30 S by a glass potter (2 cm^3) as described above. The homogenate was centrifuged for 20 min at 12,000 × g and 4 °C. Microsomes were pelleted by ultracentrifugation at 100,000 × g for 1 h at 4 °C. The pellet was resuspended in reaction buffer and the protein concentration determined using the Pierce Protein BCA kit as described above.
Microsomal protein (250 µg/mL) was preincubated with 1 mM NADPH and the compound of interest in reaction buffer for 10 min. The reaction was started by adding progesterone spiked with a radioactive tracer (final activity 0.025 mCi) to a final concentration of 500 nM. After 10 min of incubation at 37 °C the reaction was stopped by adding enzyme substrate and product at a final concentration of 1 mM in methanol, followed by shock-freezing in liquid nitrogen. Steroids were separated by thin layer chromatography on SIL G-25 UV254 TLC plates (Macherey-Nagel, Düren, Germany) using chloroform and ethyl acetate (1:4; v:v). Bands were excised and radiolabeled steroids analyzed by scintillation counting using […] Plus cocktail (Zinsser Analytic, Frankfurt am Main, Germany) and a β-counter (Packard, Connecticut, USA). Relative conversion was calculated based on total counts.

[1] = parameters: method as in Nguyen et al., 2020; settings: ref Nguyen et al., 2020; cited from earlier work
CYP11A1 = target: T2, CYP11A1 (Homo sapiens, UniProt P05108); parameters: method as in Mast et al., 2013, Vanden Bossche et al., 1986; settings: in words, ref Mast et al., 2013, Vanden Bossche et al., 1986; cited from earlier work
T2 construct: host or cells: V79-4 cells (Chinese hamster), transient transfection, mitochondrial fraction
T2 sequence (P05108 40-521): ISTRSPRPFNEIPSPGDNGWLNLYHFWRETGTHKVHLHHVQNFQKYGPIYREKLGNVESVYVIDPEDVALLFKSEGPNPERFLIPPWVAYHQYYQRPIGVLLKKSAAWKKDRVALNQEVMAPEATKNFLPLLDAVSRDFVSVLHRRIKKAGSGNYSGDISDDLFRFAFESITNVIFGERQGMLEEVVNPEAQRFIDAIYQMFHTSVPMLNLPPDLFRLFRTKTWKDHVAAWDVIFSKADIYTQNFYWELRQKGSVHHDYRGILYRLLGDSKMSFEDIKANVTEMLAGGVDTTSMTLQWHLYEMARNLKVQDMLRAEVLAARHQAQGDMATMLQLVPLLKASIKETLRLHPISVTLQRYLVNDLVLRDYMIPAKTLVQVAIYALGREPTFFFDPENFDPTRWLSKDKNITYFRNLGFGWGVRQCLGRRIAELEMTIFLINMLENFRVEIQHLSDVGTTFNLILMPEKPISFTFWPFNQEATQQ

SMILES	inhibition of CYP17A1 17α-hydroxylase (CYP17A1 17α-hydroxylase)	IC50 (CYP17A1 17α-hydroxylase)	serum concentration with increased risk of pseudohyperaldosteronism [1]	CYP11A1 inhibition in earlier studies (CYP11A1)
CC[C@@H]([C@H](C)O)n1ncn(-c2ccc(N3CCN(c4ccc(OC[C@@H]5CO[C@@](Cn6cncn6)(c6ccc(F)cc6F)C5)cc4)CC3)cc2)c1=O [posaconazole, Posaconazole]	moderately inhibited	1.12 µM	> 2500 ng/mL	moderate CYP11A1 inhibition
CCC(C)n1ncn(-c2ccc(N3CCN(c4ccc(OCC5COC(Cn6cncn6)(c6ccc(Cl)cc6Cl)O5)cc4)CC3)cc2)c1=O (centres unmarked) [itraconazole]	–	> 10 µM	–	no substantial inhibition
C[C@@H](c1nc(-c2ccc(C#N)cc2)cs1)[C@](O)(Cn1cncn1)c1cc(F)ccc1F [isavuconazole]	very weakly	> 10 µM	–	–
